Like-named read-outs stand apart in the source and are kept apart here.
Columns and labels:
[1] = system: Key Grass and Sedge Weeds as well as Grass Crops; assay: Post-emergent Test II herbicidal activity (Table 6); format: in vivo; conditions: post-emergence, 336 h; for pest or weed control at 66 g/ha: application rate 66 g ai/ha; for pest or weed control at 132 g/ha: application rate 132 g ai/ha
Outline: (§1)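 Injury was rated visually 14 d after treatment on a 0–100% scale against untreated controls. Test compounds, formulated with crop oil concentrate and surfactant and serially diluted down to 1/16× of the top rate, were applied by track sprayer at 187 L/ha onto first- to second-true-leaf seedlings.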

[2] = system: Key Broadleaf Weed and Crop Species; assay: Post-emergent Test II herbicidal activity (Table 5); format: in vivo; conditions: post-emergence, 336 h, post-emergent, 14 days after application; for pest or weed control at 66 g/ha: 66 g ai/ha; for pest or weed control at 132 g/ha: 132 g ai/ha
Outline: as §1

[3] = Triticum aestivum, TRZSS (wheat), read-out: Visual Growth Reduction (%) 14 Days After Application, TRZSS
[4] = CYPES: yellow nutsedge (Cyperus esculentus), read-out: Visual Growth Reduction (%) 14 Days After Application, CYPES
[5] = DIGSA: crabgrass (Digitaria sanguinalis), read-out: Visual Growth Reduction (%) 14 Days After Application, DIGSA
[6] = ECHCG: barnyardgrass (Echinochloa crus-galli), read-out: Visual Growth Reduction (%) 14 Days After Application, ECHCG
[7] = ORYSA: rice (Oryza sativa), read-out: Visual Growth Reduction (%) 14 Days After Application, ORYSA
[8] = SETFA: giant foxtail (Setaria faberi), read-out: Visual Growth Reduction (%) 14 Days After Application, SETFA
[9] = SORVU: grain sorghum (Sorghum vulgare), read-out: Visual Growth Reduction (%) 14 Days After Application, SORVU
[10] = ZEAMX: maize, corn (Zea mays), read-out: Visual Growth Reduction (%) 14 Days After Application, ZEAMX
[11] = ABUTH: velvetleaf (Abutilon theophrasti), read-out: Visual Growth Reduction (%) 14 Days After Application ABUTH
[12] = AMARE: redroot pigweed (Amaranthus retroflexus), read-out: Visual Growth Reduction (%) 14 Days After Application AMARE
[13] = BRSNN: oilseed-rape, canola (Brassica napus), read-out: Visual Growth Reduction (%) 14 Days After Application BRSNN
[14] = CHEAL: lambsquarters (Chenopodium album), read-out: Visual Growth Reduction (%) 14 Days After Application CHEAL
[15] = EPHHL: wild poinsettia (Euphorbia heterophylla), read-out: Visual Growth Reduction (%) 14 Days After Application EPHHL
[16] = HELAN: sunflower (Helianthus annuus), read-out: Visual Growth Reduction (%) 14 Days After Application HELAN
[17] = VIOTR: wild pansy (Viola tricolor), read-out: Visual Growth Reduction (%) 14 Days After Application VIOTR

Work on `C#Cc1ccc(-c2nc(C(=O)OC)c(Cl)c(N)c2C)cc1` [Compound 40, methyl 4-amino-3-chloro-6-(4-ethynylphenyl)-5-methylpicolinate] yielded a pest or weed control at 66 g/ha [1, 3] of 0 to 29%, a pest or weed control at 132 g/ha [1, 3] of 0 to 29% and a pest or weed control at 66 g/ha [1, 4] of 0 to 29%. For the same compound, the pest or weed control at 132 g/ha [1, 4] was 0 to 29%, the pest or weed control at 66 g/ha [1, 5] was 0 to 29% and the pest or weed control at 132 g/ha [1, 5] was 0 to 29%. The pest or weed control at 66 g/ha [1, 6] was 0 to 29%, the pest or weed control at 132 g/ha [1, 6] was 0 to 29% and the pest or weed control at 66 g/ha [1, 7] was 0 to 29%. For the same compound, the pest or weed control at 132 g/ha [1, 7] was 0 to 29%, the pest or weed control at 66 g/ha [1, 8] was 0 to 29% and the pest or weed control at 132 g/ha [1, 8] was 0 to 29%. The pest or weed control at 66 g/ha [1, 9] was 0 to 29%, the pest or weed control at 132 g/ha [1, 9] was 0 to 29% and the pest or weed control at 66 g/ha [1, 10] was 0 to 29%. The pest or weed control at 132 g/ha [1, 10] was 0 to 29%, the pest or weed control at 66 g/ha [2, 11] was 75 to 84% and the pest or weed control at 132 g/ha [2, 11] was 95 to 100%. For the same compound, the pest or weed control at 66 g/ha [2, 12] was 0 to 29%, the pest or weed control at 132 g/ha [2, 12] was 45 to 59% and the pest or weed control at 66 g/ha [2, 13] was 45 to 59%. The pest or weed control at 132 g/ha [2, 13] was 45 to 59%, the pest or weed control at 66 g/ha [2, 14] was 45 to 59% and the pest or weed control at 132 g/ha [2, 14] was 60 to 74%. The pest or weed control at 66 g/ha [2, 15] was 0 to 29%, the pest or weed control at 132 g/ha [2, 15] was 0 to 29% and the pest or weed control at 66 g/ha [2, 16] was 85 to 94%. It also gave a pest or weed control at 132 g/ha [2, 16] of 95 to 100%, a pest or weed control at 66 g/ha [2, 17] of 0 to 29% and a pest or weed control at 132 g/ha [2, 17] of 0 to 29%.
